In general, pIC50 refers to −log10 of the IC50, conventionally taken in molar units. Low readings indicate a high IC50, high ones a low IC50.

In this test the test system is HEK293-STF3A cells. Description: STF3A assay (STF luciferase reporter in Wnt3A-expressing HEK293 cells). It is filed as cell-based. Particulars: Homo sapiens, 24 h, 1 day of treatment. An outline of the steps: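 HEK293 cells carrying the STF reporter and expressing Wnt3A, seeded 2×10^4 per well overnight, then treated 1 day with compound at final 50 μM to 1.5 nM. Luciferase activity read by luminescence after Steady-Glo reagent, 10 min at room temperature.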
A general note: In a reporter assay the amount or activity of a reporter protein is the signal.

pIC50: −log10 of the molar value. A value given as a limit tells only on which side of the number the result lay.

`CN1C(=O)C2=C(C1=O)N(CC(=O)Nc1ccc(-c3nccs3)cc1)CCC2` [Compound 2, 2-(6-methyl-5,7-dioxo-2,3,4,5,6,7-hexahydro-1H-pyrrolo[3,4-b]pyridin-1-yl)-N-(4-(thiazol-2-yl)phenyl)acetamide]: the pIC50 was more than 7.00.

In turn, `COc1cncc(-c2ccc(NC(=O)CN3CCCC4=C3C(=O)N(C3CC3)C4=O)nn2)c1` [Compound 153, 2-(6-cyclopropyl-5,7-dioxo-2,3,4,5,6,7-hexahydro-1H-pyrrolo[3,4-b]pyridin-1-yl)-N-(6-(5-methoxypyridin-3-yl)pyridazin-3-yl)acetamide] had a negative logarithm of the IC50 (pIC50) of more than 7.00.

As to `Cc1cncc(-c2ncc(NC(=O)CN3CCCC4=C3C(=O)N(C3CC3)C4=O)cc2C)c1` [Compound 68, 2-(6-cyclopropyl-5,7-dioxo-2,3,4,5,6,7-hexahydro-1H-pyrrolo[3,4-b]pyridin-1-yl)-N-(3,5′-dimethyl-[2,3′-bipyridin]-5-yl)acetamide], the pIC50 was more than 7.00.

In turn, `CN1C(=O)C2=C(C1=O)N(CC(=O)Nc1ccc(-c3cncc(F)c3)nc1)CCC2` [Compound 100, N-(5′-fluoro-[2,3′-bipyridin]-5-yl)-2-(6-methyl-5,7-dioxo-2,3,4,5,6,7-hexahydro-1H-pyrrolo[3,4-b]pyridin-1-yl)acetamide] showed a pIC50 of more than 7.00.

`C[C@@H](C(=O)Nc1ccc(-c2cccnc2)nc1)N1CCCC2=C1C(=O)N(C)C2=O` (single isomer, unassigned) [Compound 116] had a pIC50 of more than 7.00.

Compound `O=C(CN1CCCC2=C1C(=O)N(C1CC1)C2=O)Nc1ccc(-c2ccccn2)cn1` [Compound 16, N-([2,3′-bipyridin]-6′-yl)-2-(6-cyclopropyl-5,7-dioxo-2,3,4,5,6,7-hexahydro-1H-pyrrolo[3,4-b]pyridin-1-yl)acetamide] gave a pIC50 of more than 7.00.

For the compound `O=C(CN1CCCC2=C1C(=O)N(C1CC1)C2=O)Nc1ccc(-c2cncc(C(F)(F)F)c2)nn1` [Compound 54, 2-(6-cyclopropyl-5,7-dioxo-2,3,4,5,6,7-hexahydro-1H-pyrrolo[3,4-b]pyridin-1-yl)-N-(6-(5-(trifluoromethyl)pyridin-3-yl)pyridazin-3-yl)acetamide], the negative-log IC50 (pIC50) was more than 7.00.

Regarding `Cc1cc(NC(=O)CN2CCCC3=C2C(=O)N(C)C3=O)ncc1-c1cccnc1` [Compound 114, 2-(6-methyl-5,7-dioxo-2,3,4,5,6,7-hexahydro-1H-pyrrolo[3,4-b]pyridin-1-yl)-N-(4-methyl-[3,3′-bipyridin]-6-yl)acetamide], the pIC50 is more than 5.30.

Compound `O=C(CN1CCCC2=C1C(=O)N(C1CC1)C2=O)Nc1ccc(-c2cccc(OC(F)(F)F)c2)nn1` [Compound 56, 2-(6-cyclopropyl-5,7-dioxo-2,3,4,5,6,7-hexahydro-1H-pyrrolo[3,4-b]pyridin-1-yl)-N-(6-(3-(trifluoromethoxy)phenyl)pyridazin-3-yl)acetamide] gave a negative-log IC50 (pIC50) of more than 6.00.

`Cc1cccc(-c2ccc(NC(=O)CN3CCCC4=C3C(=O)N(C)C4=O)nn2)c1` [Compound 29, 2-(6-methyl-5,7-dioxo-2,3,4,5,6,7-hexahydro-1H-pyrrolo[3,4-b]pyridin-1-yl)-N-(6-(m-tolyl)pyridazin-3-yl)acetamide] had a pIC50 of more than 7.00.

Compound `CN1C(=O)C2=C(C1=O)N(CC(=O)Nc1ccc(-c3ccccn3)cn1)CCC2` [Compound 1, N-([2,3′-bipyridin]-6′-yl)-2-(6-methyl-5,7-dioxo-2,3,4,5,6,7-hexahydro-1H-pyrrolo[3,4-b]pyridin-1-yl)acetamide] gave a pIC50 of more than 7.00.

The compound `O=C(CN1CCCC2=C1C(=O)N(C1CCC1)C2=O)Nc1ccc(-c2ccccc2)nn1` [Compound 38, 2-(6-cyclobutyl-5,7-dioxo-2,3,4,5,6,7-hexahydro-1H-pyrrolo[3,4-b]pyridin-1-yl)-N-(6-phenylpyridazin-3-yl)acetamide] gave a negative-log IC50 (pIC50) of more than 7.00.

For `CC(C(=O)Nc1ccc(-c2ccccc2)nn1)N1CCCC2=C1C(=O)N(C)C2=O` (stereo not shown) [Compound 13, 2-(6-methyl-5,7-dioxo-2,3,4,5,6,7-hexahydro-1H-pyrrolo[3,4-b]pyridin-1-yl)-N-(6-phenylpyridazin-3-yl)propanamide], the pIC50 is more than 7.00.

For `CN1C(=O)C2=C(C1=O)N(CC(=O)Nc1ccc(-c3ccccc3)c(F)c1)CCC2` [Compound 80, N-(2-fluoro-[1,1′-biphenyl]-4-yl)-2-(6-methyl-5,7-dioxo-2,3,4,5,6,7-hexahydro-1H-pyrrolo[3,4-b]pyridin-1-yl)acetamide], the pIC50 is more than 7.00.

As for `CN1C(=O)C2=C(C1=O)N(CC(=O)Nc1ccc(-c3cncnc3)cn1)CCC2` [Compound 101, 2-(6-methyl-5,7-dioxo-2,3,4,5,6,7-hexahydro-1H-pyrrolo[3,4-b]pyridin-1-yl)-N-(5-(pyrimidin-5-yl)pyridin-2-yl)acetamide], the pIC50 is more than 7.00.

`C[C@H](C(=O)Nc1ccc(-c2cccnc2)nc1)N1CCCC2=C1C(=O)N(C)C2=O` (single isomer, unassigned) [Compound 117] had a pIC50 of more than 6.00.

Compound `O=C(CN1CCCC2=C1C(=O)N(C1CC1)C2=O)Nc1ccc(-c2cncc(F)c2)nc1` [Compound 87, 2-(6-cyclopropyl-5,7-dioxo-2,3,4,5,6,7-hexahydro-1H-pyrrolo[3,4-b]pyridin-1-yl)-N-(5′-fluoro-[2,3′-bipyridin]-5-yl)acetamide] had a pIC50 of more than 7.00.

Consider `O=C(CN1CCCC2=C1C(=O)N(C1CC1)C2=O)Nc1cnc(-c2cncc(F)c2)cn1` [Compound 142, 2-(6-cyclopropyl-5,7-dioxo-2,3,4,5,6,7-hexahydro-1H-pyrrolo[3,4-b]pyridin-1-yl)-N-(5-(5-fluoropyridin-3-yl)pyrazin-2-yl)acetamide], for which the pIC50 was more than 7.00.

`CC(C(=O)Nc1cc(F)c(-c2cccnc2)cn1)N1CCCC2=C1C(=O)N(C)C2=O` (stereo not shown) [Compound 119, N-(4-fluoro-3,3′-bipyridin-6-yl)-2-(6-methyl-5,7-dioxo-2,3,4,5,6,7-hexahydro-1H-pyrrolo[3,4-b]pyridin-1-yl)propanamide] had a pIC50 of more than 7.00.

The compound `Cc1ccc(-c2ccc(NC(=O)CN3CCCC4=C3C(=O)N(C)C4=O)nc2)cn1` [Compound 39, 2-(6-methyl-5,7-dioxo-2,3,4,5,6,7-hexahydro-1H-pyrrolo[3,4-b]pyridin-1-yl)-N-(6′-methyl-[3,3′-bipyridin]-6-yl)acetamide] gave a pIC50 of more than 7.00.

Compound `CN1C(=O)C2=C(C1=O)N(CC(=O)Nc1ccc(-c3ccccc3F)nn1)CCC2` [Compound 84, N-(6-(2-fluorophenyl)pyridazin-3-yl)-2-(6-methyl-5,7-dioxo-2,3,4,5,6,7-hexahydro-1H-pyrrolo[3,4-b]pyridin-1-yl)acetamide] gave a pIC50 of more than 7.00.

As to `CC(C(=O)Nc1ccc(-c2ccc(F)nc2)cn1)N1CCCC2=C1C(=O)N(C)C2=O` (stereo not shown) [Compound 96, N-(6′-fluoro-3,3′-bipyridin-6-yl)-2-(6-methyl-5,7-dioxo-2,3,4,5,6,7-hexahydro-1H-pyrrolo[3,4-b]pyridin-1-yl)propanamide], the pIC50 was more than 6.00.

As to `C[C@@H](C(=O)Nc1ccc(-c2ccccc2)nn1)N1CCCC2=C1C(=O)N(C)C2=O` (single isomer, unassigned) [Compound 94], the pIC50 is more than 7.00.

`Cc1cc(NC(=O)CN2CCCC3=C2C(=O)N(C)C3=O)ccc1-c1ccccc1` [Compound 82, 2-(6-methyl-5,7-dioxo-2,3,4,5,6,7-hexahydro-1H-pyrrolo[3,4-b]pyridin-1-yl)-N-(2-methyl-[1,1′-biphenyl]-4-yl)acetamide] gave a pIC50 of more than 7.00.

In the case of `CC(C(=O)Nc1ccc(-c2cccnc2F)cn1)N1CCCC2=C1C(=O)N(C)C2=O` (stereo not shown) [Compound 97, N-(2′-fluoro-3,3′-bipyridin-6-yl)-2-(6-methyl-5,7-dioxo-2,3,4,5,6,7-hexahydro-1H-pyrrolo[3,4-b]pyridin-1-yl)propanamide], the pIC50 was more than 7.00.

`Cc1ccncc1-c1ccc(NC(=O)CN2CCCC3=C2C(=O)N(C2CC2)C3=O)cn1` [Compound 138, 2-(6-cyclopropyl-5,7-dioxo-2,3,4,5,6,7-hexahydro-1H-pyrrolo[3,4-b]pyridin-1-yl)-N-(4′-methyl-2,3′-bipyridin-5-yl)acetamide] had a pIC50 of more than 6.00.

In turn, `O=C(CN1CCCC2=C1C(=O)N(C1CC1)C2=O)Nc1ccc(-c2ccc(F)nc2)nn1` [Compound 69, 2-(6-cyclopropyl-5,7-dioxo-2,3,4,5,6,7-hexahydro-1H-pyrrolo[3,4-b]pyridin-1-yl)-N-(6-(6-fluoropyridin-3-yl)pyridazin-3-yl)acetamide] had a pIC50 of more than 7.00.

Compound `Cc1ccc(-c2ccc(NC(=O)CN3CCCC4=C3C(=O)N(C3CC3)C4=O)nn2)cn1` [Compound 86, 2-(6-cyclopropyl-5,7-dioxo-2,3,4,5,6,7-hexahydro-1H-pyrrolo[3,4-b]pyridin-1-yl)-N-(6-(6-methylpyridin-3-yl)pyridazin-3-yl)acetamide] had a pIC50 of more than 7.00.

For `O=C(CN1CCCC2=C1C(=O)N(C1CC1)C2=O)Nc1ccc(-c2ccc(F)nc2)nc1` [Compound 124, 2-(6-cyclopropyl-5,7-dioxo-2,3,4,5,6,7-hexahydro-1H-pyrrolo[3,4-b]pyridin-1-yl)-N-(6′-fluoro-[2,3′-bipyridin]-5-yl)acetamide], the pIC50 is more than 7.00.

Take `Cc1cc(NC(=O)CN2CCCC3=C2C(=O)N(C2CC2)C3=O)cnc1-c1cccnc1` [Compound 133, 2-(6-cyclopropyl-5,7-dioxo-2,3,4,5,6,7-hexahydro-1H-pyrrolo[3,4-b]pyridin-1-yl)-N-(3-methyl-2,3′-bipyridin-5-yl)acetamide]: the pIC50 is more than 6.00.

`C[C@H](C(=O)Nc1ccc(-c2cccnc2)cn1)N1CCCC2=C1C(=O)N(C)C2=O` (single isomer, unassigned) [Compound 93]: the pIC50 was more than 6.00.

These data come from patent US9981964B2 (Agency for Science, Technology and Research, priority 2013, dated 2018).
